From paper PMC6803640, “Oligomeric state, hydrodynamic properties and target recognition of human Calcium and Integrin Binding protein 2 (CIB2)” (Scientific Reports, 2019)
Several values for one entry are separate records, joined by “and”; a condition that tells them apart may be missing. Identical values can stand only once. Where a SMILES comes first, the peptide text is derived from it.

B1: CIB2: Recombinant human CIB2, Ca^2+ and Mg^2+-binding protein (protein)
chain: MGNKQTIFTEEQLDNYQDCTFFNKKDILKLHSRFYELAPNLVPMDYRKSPIVHVPMSLIIQMPELRENPFKERIVAAFSEDGEGNLTFNDFVDMFSVLCESAPRELKANYAFKIYDFNTDNFICKEDLELTLARLTKSELDEEEVVLVCDKVIEEADLDGDGKLGFADFEDMIAKAPDFLSTFHIRI
modifications: left off: His tag, end not stated, cleaved

Assays:
CIB2 = assay: Near-UV circular dichroism; assay type: physicochemical, human; settings: 37 °C
Procedure: CIB2 tertiary structure was investigated by using a Jasco J-710 spectropolarimeter equipped with a Peltier type cell holder as previously described. Briefly: near-UV (250–320 nm) CD spectra of 20 μM of sole CIB2 or CIB2/α7B_M complexes (1:1 and 1:2 ratios) were collected in the presence of 500 μM EGTA and after sequential additions of 1 mM Mg^2+ and 2 mM free Ca^2+. A 1 cm quartz cuvette was used, temperature was set at 37 °C, integration time and data pitch were set to 4 s and 1 nm, respectively. Each spectrum represents the average of 5 accumulations. […]
Figure S4: Structural comparison of His-CIB2 (A) and CIB2 (B). Near-UV CD spectra (250-320 nm) of 20-30 µM CIB2 were collected at 37°C in a quartz cuvette with 1 cm length path. Sequential additions of 500 µM EGTA (black), 1 mM Mg2+ (blue) and 2 mM Ca2+ (red) were performed. Near-UV CD spectra of the buffer (20 mM HEPES pH 7.5, 150 mM KCl, 1 mM DTT) was considered as blank and subtracted. Each spectrum represents the mean of 5 accumulations. Data were normalized according to the protein concentration and the number of residues (Molar Residue Ellipticity, MRE).
Figure S5: Near-UV CD spectra of CIB2 in the presence of different stoichiometric ratios of alpha7B_M peptide. Near-UV CD spectra (250-320nm) of 20 μM CIB2 in the absence of peptide (black lines) and in the presence of two different protein/peptide ratios (1:1 blue lines; 1:2 red lines) collected at 37°C in the presence of 500 μM EGTA (A) and after sequential additions of 1 mM Mg2+ (B) and 2 mM free Ca2+ (C). The spectrum of alpha7B_M peptide in the absence of CIB2 is shown in dashed grey lines. […]

Dynamic light scattering = assay type: physicochemical; settings: 37 °C, fractions eluted from SEC (CIB2 A2 band), mean ± SEM; n = 15 (CIB2), 18 (Rec), 30 (CaM); 1.8 µM CIB2, 11 µM Rec, 7.4 µM CaM
Procedure: DLS measurements were performed using Zetasizer Nano-S (Malvern Instruments) at 37 °C by setting the same parameters for hydrodynamic diameter estimation as in ref.[26]. The estimation was based on 15–30 measurements, each consisting of at least 13 repetitions; data in Table 1 are reported as mean ± standard error of mean (SEM). DLS samples for each protein are the same collected in the Analytical Size Exclusion Chromatography.
(§1) His-tagged proteins, and then blocked via amine coupling as explained above. Preparation of the […]
approximately 2250 RU of CIB2 immobilized. In binding experiments, peptide concentration was varied in the 230 nM- 30 μM range for both α7B_M, and α7B_C, and experiments were repeated 4 times, both with the HBS buffer described above (containing 1 mM MgCl2) and with further addition of 2 mM CaCl2. Flow rate was set to 20 μl min−1 in all binding experiments, and the dissociation […]
Figure S1: DLS measurements of the SEC collected peaks. CIB2 band A2 (A), Rec (B) and CaM (C). Each data set consisted of 15-30 measurements (grey lines), with 13-15 repetitions each. Colored lines are referred to the average distribution. Temperature was set to 37°C and samples were equilibrated for 2 min before measurements.
Figure S2: Time-resolved proteolysis experiments. […]

Trypsin = assay: Limited proteolysis of CIB2 with trypsin; settings: 30 min, 25 °C, 25 µM CIB2, trypsin 1:100, SDS-PAGE
Procedure: (§2) Figure 5 CIB2 limited proteolysis. (A) 10 µM CIB2 was incubated at 25 °C in the presence of 1 mM EDTA (Apo), 500 µM EGTA + 1 mM Mg^2+ (Mg^2+) and 1 mM Mg^2+ + 2 mM Ca^2+ for 10 minutes at 25 °C. Samples were boiled and loaded in a 18% SDS polyacrylamide gel. (B) Limited proteolysis was performed incubating trypsin with 25 µM CIB2 in the same concentrations of ions used for (A) (protein:enzyme ratio was 100:1). Samples were collected at different times, boiled and loaded on a 18% SDS-PAGE. Both gels run for 45–50 min, then they were Coomassie Blue-stained. The figure results from two separate gels, which have been reported in full length in Fig. S6.
Limited proteolysis experiments were performed incubating 25 µM CIB2 in the presence of Trypsin (Sigma) in a ratio 1:100 enzyme:CIB2 at 25 °C. Three conditions were tested: 1 mM EDTA, 500 µM EGTA + 1 mM Mg^2+ and 1 mM Mg^2+ + 2 mM Ca^2+. Time-resolved proteolysis patterns are reported in Supplementary Materials (Fig. S2), results shown in Fig. 5 refer to reactions stopped after 5 min and 30 min. Proteolysis products were loaded on a 15% or 18% SDS gel, as indicated.
as §1
approximately 2250 RU of CIB2 immobilized. […]

[1] = CIB2 stability at 25 °C without trypsin (SDS-PAGE); assay type: physicochemical; settings: 10 µM CIB2, 10 minutes at 25 °C; EDTA, Mg^2+, Mg^2+ + Ca^2+
Procedure: as §2

Molecule	near-UV CD, effect of peptide on apo-CIB2 (CIB2; 20 μM CIB2, 500 μM EGTA, 1:1 and 2:1 peptide:protein)	near-UV CD, effect of peptide on cation-bound CIB2 (CIB2; 20 μM CIB2, 1 mM Mg^2+ and co-presence of 2 mM Ca^2+, 1:1 and 2:1 peptide:protein)	near-UV CD, structure of isolated peptide (CIB2; 500 μM EGTA, 1 mM Mg^2+, 2 mM Ca^2+)	near-UV CD, tryptophan region (CIB2; incubation of CIB2 with peptide)	DLS Ø hydrodynamic diameter (Dynamic light scattering)	native band after trypsin (Trypsin; 1 mM EDTA (apo))	native band after trypsin (Trypsin; 1 mM Mg^2+ or 1 mM Mg^2+ + 2 mM Ca^2+)	degradation without trypsin [1]
CSCC[C@H](NC(=O)[C@H](CCCCN)NC(=O)[C@H](Cc1c[nH]c2ccccc12)NC(=O)[C@H](CC(C)C)NC(=O)[C@H](CC(C)C)NC(=O)[C@H](CC(C)C)NC(C)=O)C(=O)NCC(=O)N[C@@H](Cc1ccccc1)C(=O)N[C@@H](Cc1ccccc1)C(=O)N[C@@H](CCCCN)C(=O)N[C@@H](CCCNC(=N)N)C(=O)N[C@@H](C)C(=O)N[C@@H](CCCCN)C(=O)N[C@@H](Cc1c[nH]cn1)C(=O)N1CCC[C@H]1C(=O)N[C@@H](CCC(=O)O)C(N)=O [α7B_M] (Ac-LLLWKMGFFKRAKHPE-NH2)	finer spectrum in the phenylalanine and tyrosine bands	the intensity of the resulting spectrum was lower compared to that of CIB2 without the peptide	unfolded in all the tested cases	no clear signal was visible				
B1					5.4 ± 0.2 nm and 5.4 ± 0.2 [15] nm	completely lost	permitted the detection of the native CIB2 band even after 30 min	some propensity to degradation
